Among the test systems are SNB-19 CNS; KM12 colon; HOP-62 NSCLC; UACC-62 melanoma; EKVX NSCLC; CCRF-CEM leukemia; SF-295 CNS; HT29 colon; NCI-H226 lung; MDA-MB-231 breast.
Experiment in all cases: DTP human tumour cell line panel, 48 h

Experimental findings from PubChem BioAssay (NCI) are described below.

The structures appear in SMILES notation.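 Tested at 5 concentrations; 48 h exposure; 96-well plates; endpoints linearly interpolated, else capped at highest concentration. Here, GI50 denotes the concentration required for 50% inhibition of growth. TGI: total growth inhibition.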

Consider `COC[C@H](Cc1ccccc1)N=Cc1ccccc1`, for which the TGI in the test on SNB-19 CNS, in the test with KM12 colon, with HOP-62 NSCLC, in the test with UACC-62 melanoma, in the test on EKVX NSCLC and in the test with CCRF-CEM leukemia was over 100 µM in each case. Further, the TGI in the test on SF-295 CNS and in the test on HT29 colon was over 100 µM each time.
`O=c1[nH]/c(=C/c2ccc(OCc3ccccc3)cn2)c(=O)[nH]/c1=C/c1cccnc1`: the TGI (commonly the concentration giving total growth inhibition) in the test with SNB-19 CNS was over 100 µM; with KM12 colon it was over 36.8 µM; with HOP-62 NSCLC it was over 100 µM; in the test on EKVX NSCLC, over 75.2 µM; in the test with SF-295 CNS, 1.65 µM; in the test on HT29 colon, over 100 µM.
`CC(C)(C)OC(=O)N(CCCN)CCCCN(CCCN)C(=O)OC(C)(C)C`: the TGI in the test on SNB-19 CNS, in the test with KM12 colon, in the test with HOP-62 NSCLC, with UACC-62 melanoma, with EKVX NSCLC and in the test on CCRF-CEM leukemia was over 100 µM in each case. Besides, the TGI in the test with SF-295 CNS, in the test on HT29 colon and in the test on NCI-H226 lung was over 100 µM each time.
For the compound `COc1cc(C2c3cc4c(c(O)c3C(=O)C3CCC(=O)N32)OCO4)cc(OC)c1OC` (stereo unspecified), the TGI in the test with SNB-19 CNS, in the test on KM12 colon, in the test on HOP-62 NSCLC, in the test with UACC-62 melanoma, in the test with EKVX NSCLC and in the test with CCRF-CEM leukemia was over 100 µM throughout. Besides, the TGI with SF-295 CNS, in the test on HT29 colon and in the test on NCI-H226 lung was over 100 µM in each case.
For the compound `Cc1cccc2ns[s+]c12`, the TGI with SNB-19 CNS, with KM12 colon, in the test with HOP-62 NSCLC, in the test on UACC-62 melanoma, in the test on EKVX NSCLC and in the test on CCRF-CEM leukemia was over 100 µM in each case. Further, the TGI in the test with SF-295 CNS, in the test on HT29 colon and in the test with NCI-H226 lung was over 100 µM each time.
Turning to `CN1C(=N\S(=O)(=O)c2ccc(Cl)cc2)/C(=N/N=P(c2ccccc2)(c2ccccc2)c2ccccc2)c2ccccc21`, the TGI with SNB-19 CNS, with KM12 colon, with UACC-62 melanoma, in the test on EKVX NSCLC, in the test with CCRF-CEM leukemia and with SF-295 CNS was over 100 µM throughout. The TGI in the test on HT29 colon and with NCI-H226 lung was over 100 µM throughout.
`O=C(Cl)c1cc([N+](=O)[O-])cc([N+](=O)[O-])c1`: the TGI with SNB-19 CNS, in the test on KM12 colon, with HOP-62 NSCLC, in the test on UACC-62 melanoma, in the test with EKVX NSCLC and with CCRF-CEM leukemia was over 100 µM throughout. The TGI in the test on SF-295 CNS, with HT29 colon and in the test on NCI-H226 lung was over 100 µM in each case.
Regarding `CC(C)(C)OC(=O)NCCNC(=O)OCc1ccccc1`, the TGI in the test with SNB-19 CNS, in the test with KM12 colon, with HOP-62 NSCLC, with UACC-62 melanoma, with EKVX NSCLC and with SF-295 CNS was over 100 µM in each case. For the same compound, the TGI in the test on HT29 colon and with NCI-H226 lung was over 100 µM in each case.
Regarding `Cc1ccc(CCNC(=S)SCC(NC(=O)CCC(N)C(=O)O)C(=O)NCC(=O)O)cc1` (stereo unspecified), the TGI with SNB-19 CNS was 4.98 µM; in the test on KM12 colon, 2.68 µM; in the test with HOP-62 NSCLC, 8.08 µM; in the test with UACC-62 melanoma it was 3.08 µM; with EKVX NSCLC it was 18.6 µM; in the test with CCRF-CEM leukemia it was 2.18 µM. Also, the values for the TGI in the test with SF-295 CNS, in the test with HT29 colon and in the test with NCI-H226 lung were 8.69 µM, 7.01 µM and 4.47 µM, respectively.
For `COc1nc(NC2OCC(OC(C)=O)C(OC(C)=O)C2OC(C)=O)c(N=C(C)C(C)=O)c(=O)n1C` (stereo unspecified), the TGI in the test on SNB-19 CNS, in the test with KM12 colon, in the test with EKVX NSCLC, in the test on CCRF-CEM leukemia, with SF-295 CNS and in the test with HT29 colon was over 100 µM in each case. The compound further showed a TGI in the test with NCI-H226 lung of over 100 µM.
In the case of `CCCCCCc1cc2cc(C(=O)Nc3cccc(C(F)(F)F)c3)c(=N)oc2cc1O`, the TGI is over 44.3 µM in the test on SNB-19 CNS; 10.3 µM with KM12 colon; 5.03 µM with HOP-62 NSCLC; 6.02 µM in the test on UACC-62 melanoma; 11.6 µM in the test on EKVX NSCLC; 7.69 µM in the test with MDA-MB-231 breast. Also, the TGI was 14.1 µM in the test on SF-295 CNS, over 100 µM in the test on HT29 colon and 3.52 µM in the test with NCI-H226 lung.
For `O=c1[nH]c2cccccc-2c1-c1nc2ccccc2[nH]1`, the TGI with SNB-19 CNS was 88 µM; in the test on KM12 colon it was over 100 µM; with HOP-62 NSCLC, 94.8 µM; with UACC-62 melanoma, 44.9 µM; in the test with EKVX NSCLC, over 100 µM; in the test on CCRF-CEM leukemia, over 100 µM. Besides, the TGI in the test with SF-295 CNS is over 100 µM; in the test with HT29 colon, over 100 µM; with NCI-H226 lung, 35.6 µM.
Turning to `COc1ccccc1C1C(Cl)C(=O)N1NC(=O)Cc1ccccc1` (stereo unspecified), the TGI in the test with SNB-19 CNS, with KM12 colon, in the test on HOP-62 NSCLC, in the test with UACC-62 melanoma, in the test with EKVX NSCLC and in the test with CCRF-CEM leukemia was over 100 µM in each case. For the same compound, the concentration for total growth inhibition (TGI) in the test with SF-295 CNS, in the test on HT29 colon and in the test on NCI-H226 lung was over 100 µM each time.
Take `CCC1OC(=O)C(C)C(OC2CC(C)(O)C(O)C(C)O2)C(C)C(O)C(C)(O)CC(C)C(=O)C(C)C(O)C1C` (stereo unspecified): the TGI in the test with SNB-19 CNS, with KM12 colon, in the test on HOP-62 NSCLC, with UACC-62 melanoma, in the test with EKVX NSCLC and in the test on CCRF-CEM leukemia was over 300 µM each time. The TGI in the test on SF-295 CNS, in the test with HT29 colon and in the test on NCI-H226 lung was over 300 µM throughout.
As to `COc1ccc2c(c1)CCC1C2CCC2(C)C1CC[C@@]2(O)CNC(=O)/C=C/c1ccc(O)c(O)c1` (stereo partly specified), the GI50 (usually the concentration that inhibits growth by half) in the test on SNB-19 CNS is 3.31 µM; with KM12 colon, 2.44 µM; in the test with HOP-62 NSCLC it was 5.59 µM; in the test with UACC-62 melanoma, 2.24 µM; in the test on EKVX NSCLC it was 4.01 µM; in the test on MDA-MB-231 breast, 2.43 µM. Moreover, the GI50 in the test on SF-295 CNS was 3.54 µM; in the test with HT29 colon, 1.93 µM; in the test with NCI-H226 lung, 9.76 µM. For the same compound, the TGI with SNB-19 CNS was over 100 µM; in the test with KM12 colon, 7.82 µM; in the test on HOP-62 NSCLC, 79.1 µM; in the test on UACC-62 melanoma, 5.63 µM; with EKVX NSCLC, over 100 µM; in the test on MDA-MB-231 breast it was 10 µM. Moreover, the figures for the TGI with SF-295 CNS, in the test with HT29 colon and with NCI-H226 lung were over 100 µM, 4.78 µM and 35.3 µM, respectively.
